# Source: US11286242B2 (priority 2018, dated 2022)
# Columns and labels:
# [1] = test system: Pyricularia oryzae; test: microbe, parasite or virus in culture; format: cell-based; conditions: 168 h, read-out: control compared to the untreated check
# [2] = test system: Phakopsora pachyrhizi; test: Phakopsora pachyrhizi test in soybean, preventive spray; format: in vivo; conditions: preventive spray on soybean plants, inoculated one day after treatment, greenhouse 25° C., 90% relative humidity, read-out: control (efficacy, disease severity rating) compared to the untreated check
# Protocol: Example 8: Phakopsora pachyrhizi Test in Soybean
# Compounds were dissolved in 2% DMSO/Acetone & then mixed with water to the calibrated spray volume of 50 mL and poured into the spray bottles for further applications.
# To test the preventive activity of compounds, healthy young soybean plants raised in the greenhouse were sprayed with active compound preparation at the stated application rates inside the spray cabinets using hallowcone nozzles. One day after treatment, the plants were inoculated with spore suspension containing 2.1×10^6 Phakopsora pachyrhizi inoculum. The inoculated plants were then kept in greenhouse chamber at 25° C. temperature & 90% relative humidity for disease expression.
# A visual assessment of compound's performance was carried out by rating the disease severity (0-100% scale) on treated plants on 3, 7, 10 & 15 days after application. Efficacy (% control) of the compounds was calculated by comparing the disease rating in the treatment with the one of the untreated control. The sprayed plants were also assessed for compound's plant compatibility by recording symptoms like necrosis, chlorosis & stunting.
# [3] = test system: Alternaria solani; test: Alternaria solani (early blight of tomato/potato) radial mycelial growth on Potato Dextrose Agar; format: cell-based; conditions: 168 h, Potato Dextrose Agar, 25° C., 60% relative humidity, seven days, read-out: control compared to the untreated check
# Protocol: Example 4: Alternaria solani (Early Blight of Tomato/Potato)
# Compounds were dissolved in 0.3% DMSO & then added to Potato Dextrose Agar medium just prior to dispensing it into petri dishes. 5 mL medium with compound in the desired concentration was dispensed into 60 mm sterile petri-plates. After solidification each plate was seeded with 5 mm size mycelial disc taken form periphery of actively growing virulent culture plate. Plates were incubated in growth chambers at 25° C. temperature and 60% relative humidity for seven days and radial growth was measured.
Structure (SMILES),inhibition of growth at 300 ppm [1],pest or weed control at 500 ppm [2],inhibition of growth at 300 ppm [3]
"O=S1(=NCc2cccc(-c3noc(C(F)(F)F)n3)c2)CCOCC1 [Compound 149, 4-((3-(5-(trifluoromethyl)-1,2,4-oxadiazol-3-yl)benzyl)imino)-1,4λ^6-oxathiane 4-oxide]",> 70%,–,–
"CS(=O)(=NC(=O)c1ccc(-c2noc(C(F)(F)F)n2)cc1)c1ccccc1F (centres unmarked) [Compound 3, N-((2-fluorophenyl)(methyl)(oxo)-λ^6-sulfanylidene)-4-(5-(trifluoromethyl)-1,2,4-oxadiazol-3-yl)benzamide]",> 70%,> 90%,–
"CS(=O)(=NCc1cccc(Cl)c1)c1ccc(-c2noc(C(F)(F)F)n2)cc1 (centres unmarked) [Compound 182, ((3-chlorobenzyl)imino)(methyl)(4-(5-(trifluoromethyl)-1,2,4-oxadiazol-3-yl)phenyl)-λ^6-sulfanone]",> 70%,–,–
"CS(=O)(=Nc1cccc(-c2noc(C(F)(F)F)n2)c1)c1ccccc1 (centres unmarked) [Compound 122, methyl(phenyl)((3-(5-(trifluoromethyl)-1,2,4-oxadiazol-3-yl)phenyl)imino)-λ^6-sulfanone]",> 70%,–,–
"CC(C)S(=O)(=NCc1ccc(-c2noc(C(F)(F)F)n2)cc1)c1ccccc1 (centres unmarked) [Compound 151, isopropyl(phenyl)((4-(5-(trifluoromethyl)-1,2,4-oxadiazol-3-yl)benzyl)imino)-λ^6-sulfanone]",> 70%,–,–
"CS(=O)(=NC(=O)c1cccc(-c2noc(C(F)(F)F)n2)c1)c1nccs1 (centres unmarked) [Compound 73, N-(methyl(oxo)(thiazol-2-yl)-λ^6-sulfaneylidene)-3-(5-(trifluoromethyl)-1,2,4-oxadiazol-3-yl)benzamide]",–,–,> 70%
"CS(=O)(Cc1cccc(F)c1F)=NC(=O)c1ccc(-c2noc(C(F)(F)F)n2)cc1 (centres unmarked) [Compound 33, N-((2,3-difluorobenzyl)(methyl)(oxo)-λ^6-sulfaneylidene)-4-(5-(trifluoromethyl)-1,2,4-oxadiazol-3-yl)benzamide]",–,–,> 70%
"CS(=O)(=Nc1ccc(-c2noc(C(F)(F)F)n2)cc1F)c1ccccc1F (centres unmarked) [Compound 165, ((2-fluoro-4-(5-(trifluoromethyl)-1,2,4-oxadiazol-3-yl)phenyl)imino)(2-fluorophenyl)(methyl)-λ^6-sulfanone]",> 70%,–,–
"CS(=O)(=NCc1ccc(-c2noc(C(F)(F)F)n2)cc1)c1ccccn1 (centres unmarked) [Compound 27, methyl(pyridin-2-yl)((4-(5-(trifluoromethyl)-1,2,4-oxadiazol-3-yl)benzyl)imino)-λ^6-sulfanone]",> 70%,> 90%,–
"CS(=O)(=Nc1ccc(-c2noc(C(F)(F)F)n2)cc1)c1ccc(C(F)(F)F)cc1 (centres unmarked) [Compound 19, methyl((4-(5-(trifluoromethyl)-1,2,4-oxadiazol-3-yl)phenyl)imino)(4-(trifluoromethyl)phenyl)-λ^6-sulfanone]",> 70%,> 90%,–
"COc1cccc(S(C)(=O)=Nc2ccc(-c3noc(C(F)(F)F)n3)cc2)c1 (centres unmarked) [Compound 106, (3-methoxyphenyl)(methyl)((4-(5-(trifluoromethyl)-1,2,4-oxadiazol-3-yl)phenyl)imino)-λ^6-sulfanone]",> 70%,–,–
"CS(=O)(=NCc1ccc(F)cc1F)c1ccc(-c2noc(C(F)(F)F)n2)cc1 (centres unmarked) [Compound 184, ((2,4-difluorobenzyl)imino)(methyl)(4-(5-(trifluoromethyl)-1,2,4-oxadiazol-3-yl)phenyl)-λ^6-sulfanone]",> 70%,–,–
"COc1cccc(S(=O)(=O)NC(=O)c2ccc(-c3noc(C(F)(F)F)n3)cc2)c1 [Compound 158, N-((3-methoxyphenyl)sulfonyl)-4-(5-(trifluoromethyl)-1,2,4-oxadiazol-3-yl)benzamide]",–,–,> 70%
"CS(=O)(=NCc1cccc(-c2noc(C(F)(F)F)n2)c1)c1nccs1 (centres unmarked) [Compound 144, methyl(thiazol-2-yl)((3-(5-(trifluoromethyl)-1,2,4-oxadiazol-3-yl)benzyl)imino)-λ^6-sulfanone]",> 70%,–,–
"CS(=O)(=Nc1ccc(-c2noc(C(F)(F)F)n2)cc1F)c1ccc(Cl)cc1 (centres unmarked) [Compound 167, (4-chlorophenyl)((2-fluoro-4-(5-(trifluoromethyl)-1,2,4-oxadiazol-3-yl)phenyl)imino)(methyl)-λ^6-sulfanone]",> 70%,–,–
CS(=O)(=NCc1ccc(F)cc1)c1ccc(-c2noc(C(F)(F)F)n2)cc1 (centres unmarked) [Compound 183],> 70%,–,–

Structure (SMILES),inhibition of growth at 300 ppm [1],pest or weed control at 500 ppm [2],inhibition of growth at 300 ppm [3]
"Cc1ccc(S(C)(=O)=Nc2ccc(-c3noc(C(F)(F)F)n3)cc2)cc1 (centres unmarked) [Compound 130, methyl(p-tolyl)((4-(5-(trifluoromethyl)-1,2,4-oxadiazol-3-yl)phenyl)imino)-λ^6-sulfanone]",> 70%,–,–
"Cc1cccc(S(C)(=O)=Nc2cccc(-c3noc(C(F)(F)F)n3)c2)c1 (centres unmarked) [Compound 114, methyl(m-tolyl)((3-(5-(trifluoromethyl)-1,2,4-oxadiazol-3-yl)phenyl)imino)-λ^6-sulfanone]",> 70%,–,–
"CS(=O)(=Nc1ccc(-c2noc(C(F)(F)F)n2)cc1F)c1cccc(F)c1 (centres unmarked) [Compound 169, ((2-fluoro-4-(5-(trifluoromethyl)-1,2,4-oxadiazol-3-yl)phenyl)imino)(3-fluorophenyl)(methyl)-λ^6-sulfanone]",> 70%,–,–
"CS(=O)(Cc1ccccc1F)=Nc1ccc(-c2noc(C(F)(F)F)n2)cc1 (centres unmarked) [Compound 94, (2-fluorobenzyl)(methyl)((4-(5-(trifluoromethyl)-1,2,4-oxadiazol-3-yl)phenyl)imino)-λ^6-sulfanone]",–,–,> 70%
"COc1ccc(S(C)(=O)=Nc2ccc(-c3noc(C(F)(F)F)n3)cc2F)cc1 (centres unmarked) [Compound 171, ((2-fluoro-4-(5-(trifluoromethyl)-1,2,4-oxadiazol-3-yl)phenyl)imino)(4-methoxyphenyl)(methyl)-λ^6-sulfanone]",> 70%,–,–
"O=C(NS(=O)(=O)c1ccc(Br)cc1)c1ccc(-c2noc(C(F)(F)F)n2)cc1 [Compound 162, N-((4-bromophenyl)sulfonyl)-4-(5-(trifluoromethyl)-1,2,4-oxadiazol-3-yl)benzamide]",–,–,> 70%
"CS(=O)(=NCc1cccc(-c2noc(C(F)(F)F)n2)c1)c1ccc(F)cc1 (centres unmarked) [Compound 145, (4-fluorophenyl)(methyl)((3-(5-(trifluoromethyl)-1,2,4-oxadiazol-3-yl)benzyl)imino)-λ^6-sulfanone]",> 70%,–,–
"CS(=O)(=Nc1ccc(-c2noc(C(F)(F)F)n2)cc1)c1ccc(F)c(F)c1 (centres unmarked) [Compound 97, (3,4-difluorophenyl)(methyl)((4-(5-(trifluoromethyl)-1,2,4-oxadiazol-3-yl)phenyl)imino)-λ^6-sulfanone]",> 70%,–,–
"CS(=O)(=NCc1ccc(-c2noc(C(F)(F)F)n2)cc1)c1ccccc1F (centres unmarked) [Compound 29, (2-fluorophenyl)(methyl)((4-(5-(trifluoromethyl)-1,2,4-oxadiazol-3-yl)benzyl)imino)-λ^6-sulfanone]",> 70%,–,–
"COc1cccc(S(C)(=O)=Nc2ccc(-c3noc(C(F)(F)F)n3)nc2)c1 (centres unmarked) [Compound 127, (3-methoxyphenyl)(methyl)((6-(5-(trifluoromethyl)-1,2,4-oxadiazol-3-yl)pyridin-3-yl)imino)-λ^6-sulfanone]",> 70%,–,–
"CS(=O)(=NCc1cccc(-c2noc(C(F)(F)F)n2)c1)c1cc(F)ccc1Br (centres unmarked) [Compound 146, (2-bromo-5-fluorophenyl)(methyl)((3-(5-(trifluoromethyl)-1,2,4-oxadiazol-3-yl)benzyl)imino)-λ^6-sulfanone]",> 70%,–,–
"CS(=O)(=NCc1cccc(-c2noc(C(F)(F)F)n2)c1)c1ccc(F)c(F)c1 (centres unmarked) [Compound 141, (3,4-difluorophenyl)(methyl)((3-(5-(trifluoromethyl)-1,2,4-oxadiazol-3-yl)benzyl)imino)-sulfanone]",> 70%,–,–
"CS(=O)(=NCc1cccc(F)c1)c1ccc(-c2noc(C(F)(F)F)n2)cc1 (centres unmarked) [Compound 185, ((3-fluorobenzyl)imino)(methyl)(4-(5-(trifluoromethyl)-1,2,4-oxadiazol-3-yl)phenyl)-λ^6-sulfanone]",> 70%,–,–
"CS(=O)(=Nc1ccc(-c2noc(C(F)(F)F)n2)cc1F)c1ccccc1 (centres unmarked) [Compound 166, ((2-fluoro-4-(5-(trifluoromethyl)-1,2,4-oxadiazol-3-yl)phenyl)imino)(methyl)(phenyl)-λ^6-sulfanone]",> 70%,–,–
"CS(=O)(=NCc1cccc(-c2noc(C(F)(F)F)n2)c1)c1ccc(Cl)cc1 (centres unmarked) [Compound 143, (4-chlorophenyl)(methyl)((3-(5-(trifluoromethyl)-1,2,4-oxadiazol-3-yl)benzyl)imino)-λ^6-sulfanone]",> 70%,–,–
"CC(C)S(=O)(=NCc1ccc(-c2noc(C(F)(F)F)n2)cc1)c1ccc(Cl)cc1 (centres unmarked) [Compound 152, (4-chlorophenyl)(isopropyl)((4-(5-(trifluoromethyl)-1,2,4-oxadiazol-3-yl)benzyl)imino)-λ^6-sulfanone]",> 70%,–,–
